In ChEMBL document CHEMBL1201862, “PubChem BioAssay data set” (2004):
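Values below derive from 48-hour exposures of cells grown in 96-well plates, with endpoints linearly interpolated between the two concentrations bracketing the appropriate inhibition level. Abbreviation: GI50, concentration required for 50% inhibition of growth.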 Active and inactive are the calls of the source. Rule as the data show it: active = GI50 up to about 1.1 µM and inactive = higher.

Assays:
Experiment in all cases: growth of human tumour cells (NCI), 48 h
MOLT-4 = system: MOLT-4
UO-31 = system: UO-31
HCT-15 = system: HCT-15
CAKI-1 = system: CAKI-1
MDA-N = system: MDA-N
NCI/ADR-RES = system: NCI/ADR-RES
OVCAR-4 = system: OVCAR-4
SF-295 = system: SF-295
LOX IMVI = system: LOX IMVI
RXF 393 = system: RXF 393
HCT-116 = system: HCT-116
TK-10 = system: TK-10
NCI-H522 = system: NCI-H522
CCRF-CEM = system: CCRF-CEM
HT-29 = system: HT-29
ACHN = system: ACHN
SN12C = system: SN12C
UACC-257 = system: UACC-257
HL-60 = system: HL-60

SMILES	GI50 (MOLT-4)	GI50 (UO-31)	GI50 (HCT-15)	GI50 (CAKI-1)	GI50 (MDA-N)	GI50 (NCI/ADR-RES)	GI50 (OVCAR-4)	GI50 (SF-295)	GI50 (LOX IMVI)	GI50 (RXF 393)	GI50 (HCT-116)	GI50 (TK-10)	GI50 (NCI-H522)	GI50 (CCRF-CEM)	GI50 (HT-29)	GI50 (ACHN)	GI50 (SN12C)	GI50 (UACC-257)	GI50 (HL-60)
COc1ccc2c(-c3csc(-c4c[nH]c5ccc(Br)cc45)n3)c[nH]c2c1	23 µM (inactive)	> 100 µM (inactive)	7.53 µM	85.7 µM (inactive)	8.26 µM (inactive)	90.6 µM (inactive)	70.5 µM (inactive)	73.5 µM (inactive)	64.1 µM (inactive)	11.9 µM (inactive)	31.3 µM (inactive)	49 µM (inactive)	23.1 µM (inactive)	27.7 µM (inactive)	77.6 µM (inactive)	70 µM (inactive)	58.1 µM (inactive)	88.9 µM (inactive)	
COC(=O)C[C@H]1[C@]2(C)C3=C(C)[C@H](c4ccoc4)CC3O[C@@H]2[C@@H]2OC(=O)[C@]3(C)CCC(=O)[C@@]1(C)[C@@H]23 (some centres not stated)	20 µM (inactive)	54.5 µM (inactive)	38.8 µM	52.5 µM (inactive)	49.9 µM (inactive)	48.6 µM (inactive)	41.3 µM (inactive)	> 100 µM (inactive)	40.1 µM (inactive)	53.5 µM (inactive)	35.4 µM (inactive)		14.5 µM (inactive)	19.9 µM (inactive)	33.8 µM (inactive)	> 100 µM (inactive)	69.7 µM (inactive)	61 µM (inactive)	22.8 µM (inactive)
COC(=O)C1C(=O)N(C)C(=O)N2CCCC12 (configuration not stated)	> 100 µM (inactive)	> 100 µM (inactive)	> 100 µM	> 100 µM (inactive)	> 100 µM (inactive)	> 100 µM (inactive)	> 100 µM (inactive)	> 100 µM (inactive)	> 100 µM (inactive)	71.8 µM (inactive)		> 100 µM (inactive)	> 100 µM (inactive)	> 100 µM (inactive)	> 100 µM (inactive)	> 100 µM (inactive)		> 100 µM (inactive)	> 100 µM (inactive)
CC1(C)N=C(N)N=C(N)N1c1cccc(CSc2ccccc2)c1	0.141 µM (active)	> 100 µM (inactive)	50.4 µM	23.6 µM (inactive)	0.037 µM (active)	> 100 µM (inactive)	2.29 µM (inactive)	1.1 µM (active)	0.103 µM (active)	0.169 µM (active)	0.0588 µM (active)	78.7 µM (inactive)	0.318 µM (active)		0.0791 µM (active)	34.4 µM (inactive)	0.0838 µM (active)	3.85 µM (inactive)	< 0.01 µM (active)
O=C(O)c1ccccc1-c1ccccc1C(=O)Nc1ccc2c(c1)Cc1ccccc1-2		30 µM (inactive)	20.4 µM	51.9 µM (inactive)	27.4 µM (inactive)	45 µM (inactive)	60.1 µM (inactive)	39.1 µM (inactive)	22.5 µM (inactive)	46.7 µM (inactive)	18 µM (inactive)	45.1 µM (inactive)	21.3 µM (inactive)		25.5 µM (inactive)	30.3 µM (inactive)	29.3 µM (inactive)	28.3 µM (inactive)	
CN(C)/C=C/c1nnc([N+](=O)[O-])s1		15.3 µM (inactive)	12 µM	18.2 µM (inactive)	4.28 µM (inactive)	16.5 µM (inactive)		13.8 µM (inactive)	2.69 µM (inactive)	14.7 µM (inactive)	5.94 µM (inactive)	25.9 µM (inactive)	1.66 µM (inactive)		3.57 µM (inactive)	15.5 µM (inactive)	18.8 µM (inactive)	14.2 µM (inactive)	
Nc1cc2c(c3ccccc13)C(CCl)CN2C(=O)c1cc2cc(NC(=O)Nc3ccc4[nH]c(C(=O)N5CC(CCl)c6c5cc(N)c5ccccc65)cc4c3)ccc2[nH]1 (configuration not stated)	< 0.01 µM (active)	0.0559 µM (active)	1.96 µM	< 0.01 µM (active)	0.292 µM (active)	1.31 µM (inactive)	1.79 µM (inactive)	0.0404 µM (active)	0.0358 µM (active)	0.0719 µM (active)	0.172 µM (active)	1.42 µM (inactive)	0.0509 µM (active)	< 0.01 µM (active)	< 0.0176 µM (active)	< 0.01 µM (active)	0.0656 µM (active)	1.16 µM (inactive)	
Cc1c[nH]c2c(O)cc3c(c12)[C@H](CCl)CN3C(=O)c1cc2cc(NC(=O)Nc3ccc4[nH]c(C(=O)N5C[C@@H](CCl)c6c5cc(O)c5[nH]cc(C)c65)cc4c3)ccc2[nH]1 [BIZELESIN]	0.418 µM (active)	< 0.001 µM (active)		9.16 µM (inactive)	22.2 µM (inactive)	0.071 µM (active)	17.3 µM (inactive)	6.35 µM (inactive)	3.6 µM (inactive)	> 100 µM (inactive)	2.6 µM (inactive)		< 0.001 µM (active)	0.274 µM (active)	27.1 µM (inactive)	0.139 µM (active)	0.378 µM (active)	14.6 µM (inactive)	0.00288 µM (active)
